Nc1ccc(S(=O)(=O)Nc2ccc(Cl)nn2)cc1
solubility (mole fraction)
Details | in 1,4-dioxane | in acetone | in acetonitrile | in ethanol | in ethyl acetate | in isopropanol | in methanol | in n-butanol | in water
283.15 K | 0.0994 | 0.0647 | 0.0187 | 0.00381 | 0.0135 | 0.0031 | 0.00473 | 0.00335 | 2.25e-05
288.15 K | 0.106 | 0.0715 | 0.0193 | 0.00432 | 0.0141 | 0.00345 | 0.00513 | 0.00372 | 3.31e-05
293.15 K | 0.116 | 0.0804 | 0.0202 | 0.00484 | 0.0152 | 0.00382 | 0.00569 | 0.00421 | 4.39e-05
298.15 K | 0.129 | 0.0908 | 0.0213 | 0.00543 | 0.0165 | 0.00429 | 0.00627 | 0.00474 | 5.9e-05
303.15 K | 0.143 | 0.102 | 0.0224 | 0.00616 | 0.0179 | 0.00476 | 0.00696 | 0.00531 | 7.53e-05
308.15 K | 0.159 | 0.116 | 0.0239 | 0.00689 | 0.0198 | 0.00538 | 0.00779 | 0.00596 | 9.52e-05
313.15 K | 0.179 | 0.131 | 0.0258 | 0.00777 | 0.0219 | 0.00614 | 0.00867 | 0.00676 | 0.000119
318.15 K | 0.204 | 0.147 | 0.0283 | 0.00879 | 0.0244 | 0.00702 | 0.00966 | 0.00768 | 0.000149
323.15 K | 0.235 | 0.165 | 0.0312 | 0.0101 | 0.0268 | 0.00792 | 0.0109 | 0.00867 | 0.000184
